In paper PMC12770330 (Scientific Reports, 2025):

Legend:
[1] = system: α-glucosidase; assay: α-glucosidase inhibitory assay; format: biochemical, Saccharomyces cerevisiae
[2] = system: α-glucosidase; assay: in vitro kinetic analysis of α-glucosidase inhibition; format: biochemical, Saccharomyces cerevisiae

α-glucosidase inhibitory activity (in words) [1] | mode of inhibition ([2]; Km increases, Vmax unchanged) | Ki ([2]; inhibitor 5.00, 10.00, 20.00 µM, substrate 4-nitrophenyl α-D-glucopyranoside) [µM] | SMILES
inactive | – | – | CCNC(=S)NC1c2ccccc2CC1O (stereo not drawn) [Compound 2d, 1-ethyl-3-(2-hydroxy-2,3-dihydro-1H-inden-1-yl) thiourea]
– | competitive | 7.39 ± 0.088 | COc1ccc(NC(=S)NC2c3ccccc3CC2O)cc1 (stereo not drawn) [Compound 2h, 1-(2-hydroxy-2,3-dihydro-1 H-inden-1-yl)-3-(4-methoxyphenyl) thiourea]
